Measurements reported in the supplement of paper PMC8741786.
In brackets after ≈: the same amount, converted by molar mass.

Tested on: Neisseria subflava/flavescens/perflava
Assay: minimum inhibitory concentration (ETEST)
Conditions: population: general population, antibiotic use in previous 6 months: No
Protocol: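 Oropharyngeal Neisseria isolates from MSM and employees in Belgium were identified to species by MALDI-TOF MS. MICs of azithromycin, ceftriaxone and ciprofloxacin were determined by ETEST on GC agar after 24 h at 36.5 °C and 5-7% CO2, in mg/L. Values beyond the strip range are reported as >256 (azithromycin) or <0.016 (ceftriaxone); isolates that did not grow are NA.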

CO/N=C(\C(=O)N[C@@H]1C(=O)N2C(C(=O)O)=C(CSc3nc(=O)c(O)nn3C)CS[C@H]12)c1csc(N)n1 [ceftriaxone]
Conditions | minimum inhibitory concentration [µg/mL]
isolate id (sample isolate): Co000767_1 | 0.023 (≈ 0.0415 µM)
isolate id (sample isolate): Co000767_2 | 0.023 (≈ 0.0415 µM)
isolate id (sample isolate): Co000767_4 | 0.023 (≈ 0.0415 µM)
isolate id (sample isolate): Co000767_5 | 0.064 (≈ 0.115 µM)
isolate id (sample isolate): Co000767_6 | 0.023 (≈ 0.0415 µM)
isolate id (sample isolate): Co000767_7 | 0.047 (≈ 0.0847 µM)
isolate id (sample isolate): Co000768_1 | 0.023 (≈ 0.0415 µM)
isolate id (sample isolate): Co000768_2 | 0.023 (≈ 0.0415 µM)
isolate id (sample isolate): Co000769_1 | 0.047 (≈ 0.0847 µM)
isolate id (sample isolate): Co000769_2 | 0.023 (≈ 0.0415 µM)
isolate id (sample isolate): Co000769_4 | 0.064 (≈ 0.115 µM)
isolate id (sample isolate): Co000770_2 | 0.032 (≈ 0.0577 µM)
isolate id (sample isolate): Co000770_4 | 0.032 (≈ 0.0577 µM)
isolate id (sample isolate): Co000770_6 | 0.032 (≈ 0.0577 µM)
isolate id (sample isolate): Co000771_2 | 0.064 (≈ 0.115 µM)
isolate id (sample isolate): Co000771_3 | 0.016 (≈ 0.0289 µM)
isolate id (sample isolate): Co000771_5 | 0.064 (≈ 0.115 µM)
isolate id (sample isolate): Co000772_1 | 0.064 (≈ 0.115 µM)
isolate id (sample isolate): Co000772_2 | 0.064 (≈ 0.115 µM)
isolate id (sample isolate): Co000772_4 | 0.023 (≈ 0.0415 µM)
isolate id (sample isolate): Co000772_5 | 0.023 (≈ 0.0415 µM)
isolate id (sample isolate): Co000772_6 | 0.016 (≈ 0.0289 µM)
isolate id (sample isolate): Co000773_1 | 0.064 (≈ 0.115 µM)
isolate id (sample isolate): Co000773_2 | 0.064 (≈ 0.115 µM)
isolate id (sample isolate): Co000774_2 | 0.016 (≈ 0.0289 µM)
isolate id (sample isolate): Co000775_1 | 0.032 (≈ 0.0577 µM)
isolate id (sample isolate): Co000775_2 | 0.047 (≈ 0.0847 µM)
isolate id (sample isolate): Co000775_3 | 0.094 (≈ 0.169 µM)
isolate id (sample isolate): Co000776_2 | 0.125 (≈ 0.225 µM)
isolate id (sample isolate): Co000776_3 | 0.125 (≈ 0.225 µM)
isolate id (sample isolate): Co000777_1 | 0.064 (≈ 0.115 µM)
isolate id (sample isolate): Co000777_2 | 0.047 (≈ 0.0847 µM)
isolate id (sample isolate): Co000777_4 | 0.047 (≈ 0.0847 µM)
isolate id (sample isolate): Co000778_1 | 0.094 (≈ 0.169 µM)
isolate id (sample isolate): Co000778_2 | 0.047 (≈ 0.0847 µM)
isolate id (sample isolate): Co000778_3 | 0.094 (≈ 0.169 µM)
isolate id (sample isolate): Co000780_4 | 0.125 (≈ 0.225 µM)
isolate id (sample isolate): Co000781_1 | 0.094 (≈ 0.169 µM)
isolate id (sample isolate): Co000781_3 | 0.064 (≈ 0.115 µM)
isolate id (sample isolate): Co000781_4 | 0.094 (≈ 0.169 µM)
isolate id (sample isolate): Co000782_2 | 0.047 (≈ 0.0847 µM)
isolate id (sample isolate): Co000782_3 | 0.25 (≈ 0.451 µM)
isolate id (sample isolate): Co000782_4 | 0.047 (≈ 0.0847 µM)
isolate id (sample isolate): Co000783_1 | 0.125 (≈ 0.225 µM)
isolate id (sample isolate): Co000783_2 | 0.032 (≈ 0.0577 µM)
isolate id (sample isolate): Co000783_5 | 0.032 (≈ 0.0577 µM)
isolate id (sample isolate): Co000784_1 | 0.023 (≈ 0.0415 µM)
isolate id (sample isolate): Co000784_2 | 0.047 (≈ 0.0847 µM)
isolate id (sample isolate): Co000784_5 | 0.032 (≈ 0.0577 µM)
isolate id (sample isolate): Co000785_1 | 0.047 (≈ 0.0847 µM)
isolate id (sample isolate): Co000785_2 | 0.047 (≈ 0.0847 µM)
isolate id (sample isolate): Co000785_3 | 0.064 (≈ 0.115 µM)
isolate id (sample isolate): Co000785_4 | 0.064 (≈ 0.115 µM)
isolate id (sample isolate): Co000786_1 | 0.032 (≈ 0.0577 µM)
isolate id (sample isolate): Co000786_2 | 0.064 (≈ 0.115 µM)
isolate id (sample isolate): Co000787_1 | 0.032 (≈ 0.0577 µM)
isolate id (sample isolate): Co000787_2 | 0.023 (≈ 0.0415 µM)
isolate id (sample isolate): Co000787_4 | 0.016 (≈ 0.0289 µM)
isolate id (sample isolate): Co000788_2 | 0.047 (≈ 0.0847 µM)
isolate id (sample isolate): Co000788_3 | 0.047 (≈ 0.0847 µM)
isolate id (sample isolate): Co000788_5 | 0.016 (≈ 0.0289 µM)
isolate id (sample isolate): Co000789_1 | 0.032 (≈ 0.0577 µM)
isolate id (sample isolate): Co000790_2 | 0.032 (≈ 0.0577 µM)
isolate id (sample isolate): Co000790_4 | 0.047 (≈ 0.0847 µM)
